“And” between values parts separate entries of the source, which are not always exact repeats. Equal values may be shown once. Read-outs that look alike come from different tables or passages of the source.
Key:
[1] = test system: A431 cells (EGFR wild type); test: CellTiter-Glo viability assay, A431; details: Homo sapiens, A-431, 96 h, read-out: EGFR CTG EC50 A431, A431, 96 hours, CellTiter-Glo
[2] = test system: H1975 cells (EGFR-L858R/T790M); test: CellTiter-Glo viability assay, H1975
EGFR-L858R = EGFR-L858R (Homo sapiens, UniProt P00533, L858R); test: HTRF KinEASE-TK activity-based assay, EGFR-L858R
Chain of EGFR-L858R (P00533 25-1210 L858R): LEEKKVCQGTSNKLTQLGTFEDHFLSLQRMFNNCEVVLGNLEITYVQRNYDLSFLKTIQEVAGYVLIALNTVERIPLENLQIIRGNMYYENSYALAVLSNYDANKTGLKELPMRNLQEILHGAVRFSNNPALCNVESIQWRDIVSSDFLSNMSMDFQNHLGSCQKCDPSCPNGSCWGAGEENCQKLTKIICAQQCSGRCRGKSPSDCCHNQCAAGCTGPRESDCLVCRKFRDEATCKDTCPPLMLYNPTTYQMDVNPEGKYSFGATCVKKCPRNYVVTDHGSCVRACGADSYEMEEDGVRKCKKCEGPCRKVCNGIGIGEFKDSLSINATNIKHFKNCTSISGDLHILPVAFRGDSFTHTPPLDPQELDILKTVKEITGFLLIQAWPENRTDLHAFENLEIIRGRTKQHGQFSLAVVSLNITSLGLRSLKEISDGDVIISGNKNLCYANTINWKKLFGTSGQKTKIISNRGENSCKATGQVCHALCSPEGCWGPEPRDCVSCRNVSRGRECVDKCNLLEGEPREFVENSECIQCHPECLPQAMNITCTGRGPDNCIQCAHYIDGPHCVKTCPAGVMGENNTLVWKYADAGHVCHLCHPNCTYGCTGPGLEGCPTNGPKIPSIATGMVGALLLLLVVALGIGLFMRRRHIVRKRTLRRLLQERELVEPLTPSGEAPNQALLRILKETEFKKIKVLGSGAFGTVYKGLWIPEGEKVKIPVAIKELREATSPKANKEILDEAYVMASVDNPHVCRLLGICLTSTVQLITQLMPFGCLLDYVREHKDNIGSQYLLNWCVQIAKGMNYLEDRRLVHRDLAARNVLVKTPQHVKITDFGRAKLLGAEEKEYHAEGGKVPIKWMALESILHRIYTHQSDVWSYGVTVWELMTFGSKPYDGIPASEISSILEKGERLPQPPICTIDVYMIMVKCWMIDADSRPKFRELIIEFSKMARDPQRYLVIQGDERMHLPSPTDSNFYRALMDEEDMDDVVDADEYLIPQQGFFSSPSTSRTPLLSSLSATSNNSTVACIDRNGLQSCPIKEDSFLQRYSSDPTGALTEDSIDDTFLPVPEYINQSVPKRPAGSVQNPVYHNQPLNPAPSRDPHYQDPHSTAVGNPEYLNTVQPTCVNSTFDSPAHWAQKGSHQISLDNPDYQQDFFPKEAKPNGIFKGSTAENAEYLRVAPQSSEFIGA

EGFR-wt = EGFR-wt (Homo sapiens, UniProt P00533); test: HTRF KinEASE-TK activity-based assay, EGFR-wt; details: EGFR HTRF IC50 wt, ATP at Km (9.5 µM), 30 min preincubation; mean ± SD of three independent measurements in duplicates
Chain of EGFR-wt (P00533 25-1210): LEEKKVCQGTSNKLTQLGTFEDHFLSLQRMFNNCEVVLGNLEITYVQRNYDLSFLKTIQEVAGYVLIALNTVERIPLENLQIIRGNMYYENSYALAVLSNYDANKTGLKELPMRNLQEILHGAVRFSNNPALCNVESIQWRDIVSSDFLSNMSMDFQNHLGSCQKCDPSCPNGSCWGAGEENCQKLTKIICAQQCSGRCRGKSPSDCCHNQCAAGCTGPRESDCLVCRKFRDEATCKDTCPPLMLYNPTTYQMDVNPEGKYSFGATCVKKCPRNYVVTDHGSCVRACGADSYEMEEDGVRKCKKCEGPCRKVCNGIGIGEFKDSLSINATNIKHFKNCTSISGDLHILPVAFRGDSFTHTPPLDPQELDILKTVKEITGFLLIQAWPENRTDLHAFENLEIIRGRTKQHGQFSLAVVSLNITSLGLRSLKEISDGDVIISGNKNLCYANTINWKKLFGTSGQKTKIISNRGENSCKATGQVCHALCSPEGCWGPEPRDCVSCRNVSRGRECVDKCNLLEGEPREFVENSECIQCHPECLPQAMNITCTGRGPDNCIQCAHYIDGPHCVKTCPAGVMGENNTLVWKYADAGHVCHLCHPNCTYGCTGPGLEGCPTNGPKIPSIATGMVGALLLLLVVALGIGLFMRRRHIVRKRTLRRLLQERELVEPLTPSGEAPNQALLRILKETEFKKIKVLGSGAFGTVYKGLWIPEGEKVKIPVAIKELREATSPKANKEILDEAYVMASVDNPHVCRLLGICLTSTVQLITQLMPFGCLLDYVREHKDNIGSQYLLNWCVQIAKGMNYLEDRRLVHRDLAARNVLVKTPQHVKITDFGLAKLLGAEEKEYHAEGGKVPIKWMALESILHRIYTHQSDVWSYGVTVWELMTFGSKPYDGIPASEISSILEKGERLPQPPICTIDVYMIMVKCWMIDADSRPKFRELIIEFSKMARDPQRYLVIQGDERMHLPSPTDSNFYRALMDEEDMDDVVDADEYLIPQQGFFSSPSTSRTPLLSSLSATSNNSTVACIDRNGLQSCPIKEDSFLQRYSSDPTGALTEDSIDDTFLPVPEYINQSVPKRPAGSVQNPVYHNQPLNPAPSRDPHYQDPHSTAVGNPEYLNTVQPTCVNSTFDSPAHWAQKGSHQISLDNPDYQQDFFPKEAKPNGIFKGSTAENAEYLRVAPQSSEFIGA

A549 cells (KRAS mutant) = test: CellTiter-Glo viability assay, A549; details: Homo sapiens, A549, 96 h, read-out: KRAS CTG EC50 A549
[3] = test system: HCC827 cells (EGFR-delE746_A750); test: CellTiter-Glo viability assay, HCC827; assay type: cell-based; details: Homo sapiens; HCC827, 96 hours, CellTiter-Glo; read-out: EGFR CTG EC50 HCC827;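 note: luminescence from ATP content as a measure of metabolically active cells, in RPMI with 10% FBS, compound added as serial dilutions after 24 h of preculture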
Procedure: (§1) A431, HCC827, H1975, A549 and H358 cells were obtained from the American Type Culture Collection (ATCC). A431 cells were cultured in DMEM high glucose media (Life Technologies, Germany), and HCC827, H1975, A549 as well as H358 cells were cultured in RPMI media (Life Technologies, Germany), both containing L-Glutamine and were supplemented with 10% FBS (GE Healthcare, Austria) and 1% PenStrep (Life Technologies, Germany) in a humidified incubator at 37 °C and 5% CO2.
(§2) Cells were seeded at cell numbers that assure linearity and optimal signal intensity (150-300 cells/well, 25 µL) and cultured for 24 hours in serum- and antibiotics-containing media in humidified chambers at 37 °C / 5% CO2. The cells were then treated with EGFR inhibitors in serial
(§3) Afterwards viability studies were carried out using CellTiter-Glo Assay (Promega, USA) that is a homogeneous method of determining the number of viable cells in culture. It is based on quantification of ATP, indicating the presence of metabolically active cells. For these studies, CellTiter-Glo reagent was prepared according to the instructions of the kit and diluted 1:1 with the complete growth medium suitable for the corresponding cell line. Thereon, reagent and assay plates were equilibrated at room temperature for 20 min. Equal volumes of the reagent were added to the volume of culture medium present in each well (25 µL). The plates were mixed for 2 minutes on an orbital shaker to induce cell lysis. The microplates were then incubated at room temperature for 20 minutes for stabilization of the luminescent signal. Following incubation the luminescence was recorded on an EnVision microplate reader (Perkin Elmer) using 500 ms integration time. The data was then analyzed using the Quattro Research Software Suite for EC50-determination. As quality control the Z’-factor was calculated from 16 positive and negative control values. Only assay results showing a Z’-factor ≥0.5 were used for further analysis. All data points were measured in duplicates for each plate and were replicated in at least two plates.

EGFR-L858R/T790M = EGFR-L858R/T790M (Homo sapiens, UniProt P00533, L858R/T790M); test: HTRF KinEASE-TK activity-based assay, EGFR-L858R/T790M; details: EGFR HTRF IC50 L858R/T790M, ATP at Km (4 µM), 30 min preincubation; mean ± SD of three independent measurements in duplicates
Chain of EGFR-L858R/T790M (P00533 25-1210 T790M/L858R): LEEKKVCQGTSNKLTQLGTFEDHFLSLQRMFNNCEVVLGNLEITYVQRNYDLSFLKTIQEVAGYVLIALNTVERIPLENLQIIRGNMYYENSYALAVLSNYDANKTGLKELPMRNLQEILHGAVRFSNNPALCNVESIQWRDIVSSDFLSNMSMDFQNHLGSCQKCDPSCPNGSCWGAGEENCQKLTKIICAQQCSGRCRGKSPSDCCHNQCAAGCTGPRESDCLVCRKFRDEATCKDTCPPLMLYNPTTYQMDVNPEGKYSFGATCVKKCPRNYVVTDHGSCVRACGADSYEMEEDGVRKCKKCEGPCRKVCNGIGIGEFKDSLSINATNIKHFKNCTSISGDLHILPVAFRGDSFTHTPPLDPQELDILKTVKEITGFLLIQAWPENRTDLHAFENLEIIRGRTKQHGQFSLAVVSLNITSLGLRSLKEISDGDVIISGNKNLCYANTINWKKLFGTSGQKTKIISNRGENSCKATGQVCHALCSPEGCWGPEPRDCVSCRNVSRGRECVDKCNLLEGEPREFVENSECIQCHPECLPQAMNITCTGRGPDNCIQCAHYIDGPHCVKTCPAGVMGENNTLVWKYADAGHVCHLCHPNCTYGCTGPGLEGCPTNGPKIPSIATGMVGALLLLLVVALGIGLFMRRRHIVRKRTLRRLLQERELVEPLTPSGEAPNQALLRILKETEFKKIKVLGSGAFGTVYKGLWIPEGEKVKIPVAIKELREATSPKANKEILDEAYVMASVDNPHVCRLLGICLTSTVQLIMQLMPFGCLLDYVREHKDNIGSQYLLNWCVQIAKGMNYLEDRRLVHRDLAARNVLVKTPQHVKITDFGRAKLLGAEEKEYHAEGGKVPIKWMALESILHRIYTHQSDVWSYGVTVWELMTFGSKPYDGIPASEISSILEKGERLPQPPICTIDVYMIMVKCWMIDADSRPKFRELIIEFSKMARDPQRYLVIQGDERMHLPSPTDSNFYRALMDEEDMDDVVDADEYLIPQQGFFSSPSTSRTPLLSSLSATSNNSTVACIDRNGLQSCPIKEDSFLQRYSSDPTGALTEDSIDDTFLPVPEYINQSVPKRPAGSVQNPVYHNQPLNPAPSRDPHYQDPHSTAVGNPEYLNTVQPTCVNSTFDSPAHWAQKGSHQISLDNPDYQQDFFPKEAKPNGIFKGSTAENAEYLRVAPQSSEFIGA

H358 cells (KRAS mutant) = test: CellTiter-Glo viability assay, H358; assay type: cell-based; details: Homo sapiens, read-out: KRAS CTG EC50 H358;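 note: viable cell number estimated from ATP-dependent luminescence following exposure to serially diluted inhibitor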
Procedure: as §1, §2, §3

[4] = Microsomal stability (phase I), mouse; assay type: in vitro ADME; details: mouse liver microsomes, up to 60 minutes, 37 °C
Procedure: Microsomal stability (phase I) assay.
Metabolic stability under oxidative conditions was measured in liver microsomes from different
time up to 50 minutes (HLM) or 60 minutes (MLM) at 37 °C. Based on the compound half-life t1/2,
the in vitro intrinsic clearance CLint was calculated. […]

[5] = Homo sapiens, NCI-H1975, 96 h, read-out: EGFR CTG EC50 H1975, H1975, 96 hours, CellTiter-Glo
[6] = NCI-H358, H358, 96 hours, CellTiter-Glo

| SMILES | EC50 [1] [µM] | EC50 [2, 5] [µM] | IC50 (EGFR-L858R) [µM] | IC50 (EGFR-wt) [µM] | EC50 (A549 cells (KRAS mutant)) [µM] | EC50 [3] [µM] | IC50 (EGFR-L858R/T790M) | EC50 (H358 cells (KRAS mutant); [6]) [µM] | microsomal CLint at 3 µM [4] [µL/min/mg] | EC50 (H358 cells (KRAS mutant); NCI-H358, 96 h) [µM] | EC50 ([2]; read-out: EGFR CTG EC50 H1975, H1975, 96 hours, CellTiter-Glo) [µM] | EC50 ([2]; Homo sapiens, NCI-H1975, read-out: EC50 / potency in H1975 cells, H1975, rounded value in running text) [µM] |
| --- | --- | --- | --- | --- | --- | --- | --- | --- | --- | --- | --- | --- |
| C=CC(=O)Nc1cccc(-c2c(-c3ccc(N4CCN(C)CC4)cc3)[nH]c3ncn(CCCC)c(=O)c23)c1 [Compound 29d] | 0.767 ± 0.151 | 0.55 ± 0.157 | 0.0003 ± 0.0003 | 0.0002 | 2.97 ± 1.07 | < 0.014 | 0.0045 ± 0.0008 µM | 3.27 ± 0.693 | – | – | – | – |
| C=CC(=O)Nc1cccc(-c2c(-c3ccc(N4CCN(C)CC4)cc3)[nH]c3ncn(CC(C)C)c(=O)c23)c1 [Compound 29h] | 1.1 ± 0.506 | 0.686 ± 0.199 | 0.0002 ± 0.0001 | 0.0008 ± 0.0002 | 6.14 ± 2.12 | 0.045 ± 0.007 | > 0.001 µM and 0.0034 µM | 6.84 ± 0.866 | – | – | – | – |
| C=CC(=O)Nc1cccc(-c2c(-c3ccc(N4CCN(C)CC4)cc3)[nH]c3ncnc(OCC)c23)c1 [Compound 19c] | 0.759 ± 0.394 | 0.064 ± 0.025 | < 0.0001 | 0.0002 ± 0.0001 | 1.02 ± 0.046 | < 0.014 | 0.0001 ± 0.0001 µM | 1.66 ± 0.759 | – | – | – | – |
| CN(C)C/C=C/C(=O)Nc1cc2c(Nc3ccc(F)c(Cl)c3)ncnc2cc1O[C@H]1CCOC1 [Afatinib, afatinib, reference compound] | – | – | – | – | 1.49 ± 0.43 | – | – | – | 6 | 1.33 ± 0.515 | – | – |
| C=CC(=O)Nc1cccc(-c2c[nH]c3ncnc(OC)c23)c1 [Compound 9] | – | 9.91 ± 3.39 | 0.014 ± 0.002 | 0.082 ± 0.004 | 13.6 ± 1.41 | 2.17 ± 0.968 | < 0.1 µM and 0.031 µM | 24.5 ± 4.87 | – | – | – | – |
| C=CC(=O)Nc1cccc(-c2c(-c3ccc(N4CCN(C)CC4)cc3)[nH]c3ncn(C)c(=O)c23)c1 [Compound 29a] | 1.14 ± 0.35 | < 0.2 | 0.0005 | 0.0012 ± 0.0001 | 8.82 ± 0.697 | 0.082 ± 0.02 | 0.0005 µM | 9.51 ± 0.403 | – | – | 0.188 ± 0.064 | – |
| C=CC(=O)Nc1cccc(-c2c(-c3ccc(N4CCN(C)CC4)cc3)[nH]c3ncnc(OCCCSC)c23)c1 [Compound 19e] | 3.68 ± 0.5 | 0.281 ± 0.088 | < 0.0001 | 0.0002 | 3.01 ± 0.916 | < 0.014 | 0.0001 ± 0.0001 µM | 2.57 ± 0.338 | – | – | – | – |
| C=CC(=O)Nc1cccc(-c2c(-c3ccc(N4CCN(C)CC4)cc3)[nH]c3ncn(CC4CC4)c(=O)c23)c1 [Compound 29k] | 0.453 ± 0.218 | 0.228 ± 0.073 | 0.0009 ± 0.0006 | 0.0011 ± 0.0008 | 1.38 ± 0.985 | < 0.014 | > 0.001 µM and 0.0077 µM | 1.79 ± 0.52 | – | – | – | – |
| COc1ncnc2[nH]c(-c3ccc(C)cc3)c(-c3cccc(NC(=O)C=CCN4CCCCC4)c3)c12 [Compound 10c] | 2.75 ± 1.22 | 1.9 ± 0.269 | 0.197 ± 0.011 | 0.22 ± 0.057 | 4.49 ± 0.896 | 0.253 ± 0.001 | 0.158 ± 0.016 µM | 4.25 ± 0.336 | – | – | – | ~2 |
| CCC(=O)Nc1cccc(-c2c(-c3ccc(N4CCN(C)CC4)cc3)[nH]c3ncn(C)c(=O)c23)c1 [Compound 19b] | 9.73 ± 4.01 | – | 0.147 ± 0.097 | 0.996 ± 0.395 | 6.27 ± 1.09 | 1.79 ± 0.727 | 0.305 ± 0.192 µM | 10.2 ± 2.24 | – | – | – | – |
| C=CC(=O)Nc1cccc(-c2c(-c3ccc(N4CCN(C)CC4)cc3)[nH]c3ncn(Cc4ccccc4)c(=O)c23)c1 [Compound 29l] | 1.08 ± 0.169 | 1.57 ± 0.26 | 0.0015 ± 0.0008 | 0.001 ± 0.0002 | 25.2 ± 8.25 | 0.044 ± 0.026 | > 0.001 µM and 0.021 µM | > 30 | – | – | – | – |
| C=CC(=O)Nc1cccc(-c2c(-c3ccc(N4CCN(C)CC4)cc3)[nH]c3ncnc(OC4CCCC4)c23)c1 [Compound 19f] | 1.79 ± 0.744 | 0.107 ± 0.045 | < 0.0001 | 0.0002 | – | – | < 0.0001 µM | – | 128 | – | – | – |
| C#CCn1cnc2[nH]c(-c3ccc(N4CCN(C)CC4)cc3)c(-c3cccc(NC(=O)C=C)c3)c2c1=O [Compound 29c] | 1.02 ± 0.335 | 0.183 ± 0.048 | 0.004 ± 0.0027 | 0.0051 ± 0.0001 | 1.39 | 0.022 ± 0.002 | 0.0049 ± 0.0013 µM | 2.04 | – | – | – | – |

Source: PMC6886544
